What was measured:
Endothelial cells (EC) = assay: Cold storage and reperfusion injury of pre-treated endothelial cells, measured by electrical resistance; assay type: cell-based; settings: ECs pre-treated with UW solution comprising 50 μM or 100 μM ACT1 vs UW solution only; 1, 3, 12 and 24 hours post-treatment; FIG. 1A
Description: (§1) Endothelial cells (EC) were pre-treated with University of Wisconsin (UW) solution only, or UW solution comprising 50 μM or 100 μM ACT1. Cold storage and reperfusion injury, pro-inflammatory cytokine release, and gap junction stabilization (Cx43 expression) were measured.

IL-8 = assay: Pro-inflammatory cytokine (IL-8) release from pre-treated endothelial cells; assay type: cell-based; settings: ECs pre-treated with UW solution comprising 50 μM or 100 μM ACT1 vs UW solution only; FIG. 1B
Description: as §1

Cx43 = assay: Gap junction stabilization (Cx43 expression) in pre-treated endothelial cells; assay type: cell-based; settings: ACT1 pretreatment in UW solution; 1 hour and 24 hours post reperfusion; FIG. 1C
Description: as §1

Balb/c donor hearts = assay: Allogenic heart transplantation model with static cold storage of donor hearts; assay type: in vivo, Balb/c donors, B6 recipients; settings: donor hearts cold stored 6 h at 4° C. in UW solution with ACT1 vs UW alone
Aortic allografts = assay: Aortic allograft transplantation, chronic rejection; assay type: in vivo, Balb/c donors, B6 recipients
Description: Aortic allografts were stored for 6 hours or 24 hours, and assessed on Day 28 after transplantation for neointimal hyperplasia (a hallmark of chronic rejection) and T cell infiltration.

Pig kidneys = assay: Pig kidney ex vivo perfusion model
Description: Pig kidneys were harvested and flushed with cold HTK solution, and then underwent 18 hours of cold static storage in HTK solution. At 18 hours, the kidneys were placed on a perfusion pump and perfused in cold HTK solution with or without 1 μM ACT1 (500 μL/mL). The control kidney in each pair was perfused with cold HTK and its pair was perfused with cold HTK supplemented with ACT1. While on pump, the resistance values were recorded and samples were collected of the perfusate solution every 30 minutes. At the end of 6 hours on the pump, kidneys were taken off of the pump and biopsies were collected and assessed for viability, function, and characteristics as described below.
Tubular necrosis (in this study, a measure of cell death) was assessed by basic histology/pathology methods and subjective scoring. Overall epithelial cell death was determined using EpCam as the marker. The relative expression of Vcam and ICam were determined via RT-qPCR in biopsied tissue at the end of each perfusion pump run. LDH ([…] dehydrogenase) was measured as a marker of tissue injury and was quantified using a colorimetric assay.

[1] = biopsied tissue at end of perfusion with ACT1-augmented HTK solution vs HTK, FIG. 7

Question: What does the source list for RQPKIWFPNRRKPWKKRPRPDDLEI [ACT1]?
Answer: cold storage and reperfusion injury as measured by electrical resistance (Endothelial cells (EC)): prevented cold storage and reperfusion injury; IL-8 release from the ECs (IL-8): significantly reduced; Cx43 expression (Cx43): increased; number of macrophages (MAC-3+ cells) (Balb/c donor hearts; FIG. 2C): significantly reduced; number of neutrophils (GR1+ cells) (Balb/c donor hearts; FIG. 2C): significantly reduced; IRI as measured by cardiac troponin I (Balb/c donor hearts; FIG. 2D): significantly reduced; IRI as measured by cumulative histology score (Balb/c donor hearts; FIG. 2D): significantly reduced; percent intimal expansion (Aortic allografts; 28 days post-treatment, including aortas stored for 24 hours, FIG. 3B): significantly reduced; neointimal hyperplasia following aorta transplantation (Aortic allografts; aortic allografts stored 6 hours or 24 hours, assessed on Day 28 after transplantation, FIG. 3A): ameliorates; change in vascular renal resistance (Pig kidneys; 18 h cold static storage in HTK, then 6 hours pump perfusion in cold HTK with 1 μM ACT1 vs without, matched kidney donor pairs #1 and #2, FIGS. 4A, 4B, 5A, 5B): prevents change in vascular renal resistance; tubular necrosis (histology, subjective scoring) (Pig kidneys; 18 h cold static storage in HTK, then 6 hours pump perfusion in cold HTK with 1 μM ACT1 vs without, matched kidney donor pairs #1 and #2, FIGS. 4C, 5C): reduces tubular necrosis; endothelial cell activation as measured by Icam expression (RT-qPCR) (Pig kidneys; [1]): decreases endothelial cell activation; endothelial cell activation as measured by Vcam expression (RT-qPCR) (Pig kidneys; [1]): decreases endothelial cell activation; LDH activity (marker of tissue injury, colorimetric assay) (Pig kidneys; cold HTK perfusion with 1 μM ACT1 vs without, paired marginal kidneys, FIG. 6): decreases LDH activity

From patent publication US20210007347A1, “COMPOSITIONS AND METHODS FOR PRESERVING ORGAN TRANSPLANTS” (FIRSTSTRING RESEARCH, INC., priority 2019, published 2021)
